Earlier results as cited in patent publication US8951557B2, “Sustained release solid formulations and methods of manufacturing the same” (Hana Pharm. Co. Ltd., priority 2008, dated 2015).

Assays:
[1] = 5 mg rapid release tablet administered
[2] = administered orally, compared to direct administration into bloodstream

SMILES: COc1ccc2c3c1O[C@H]1C(=O)CC[C@@]4(O)[C@@H](C2)N(C)CC[C@]314.Cl [Oxycodone hydrochloride]
- time the analgesic effect sustains [1]: 4 to 6 h
- bioavailability [2]: 60-87%
